Values of other authors, collected in patent US20100111901A1, “TRIAZOLE INHIBITORS OF AROMATASE” (priority 2008, published 2010).

How the values were obtained:
CYP2A6 = CYP2A6 (Homo sapiens, UniProt P11509)
[1] = in vivo
CYP2D6 = CYP2D6 (Homo sapiens, UniProt P10635)
CYP1A2 = CYP1A2 (Homo sapiens, UniProt P05177); details: strongest in decreasing order of magnitude
Sequence of CYP1A2 (P05177 whole entry): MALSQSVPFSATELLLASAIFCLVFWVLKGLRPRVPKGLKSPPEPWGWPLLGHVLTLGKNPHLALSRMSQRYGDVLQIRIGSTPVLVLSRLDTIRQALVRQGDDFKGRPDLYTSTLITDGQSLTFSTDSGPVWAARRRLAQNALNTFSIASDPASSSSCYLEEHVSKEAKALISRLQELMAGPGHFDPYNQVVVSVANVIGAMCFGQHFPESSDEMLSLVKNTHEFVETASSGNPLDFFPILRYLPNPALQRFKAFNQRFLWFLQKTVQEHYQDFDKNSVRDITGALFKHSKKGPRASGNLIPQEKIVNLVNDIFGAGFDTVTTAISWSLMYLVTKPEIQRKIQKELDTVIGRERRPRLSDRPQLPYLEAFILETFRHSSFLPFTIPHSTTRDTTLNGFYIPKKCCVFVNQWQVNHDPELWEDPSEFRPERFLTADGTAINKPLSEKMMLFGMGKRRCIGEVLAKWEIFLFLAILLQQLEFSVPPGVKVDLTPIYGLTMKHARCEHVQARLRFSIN

Sequence of CYP2A6 (P11509 whole entry): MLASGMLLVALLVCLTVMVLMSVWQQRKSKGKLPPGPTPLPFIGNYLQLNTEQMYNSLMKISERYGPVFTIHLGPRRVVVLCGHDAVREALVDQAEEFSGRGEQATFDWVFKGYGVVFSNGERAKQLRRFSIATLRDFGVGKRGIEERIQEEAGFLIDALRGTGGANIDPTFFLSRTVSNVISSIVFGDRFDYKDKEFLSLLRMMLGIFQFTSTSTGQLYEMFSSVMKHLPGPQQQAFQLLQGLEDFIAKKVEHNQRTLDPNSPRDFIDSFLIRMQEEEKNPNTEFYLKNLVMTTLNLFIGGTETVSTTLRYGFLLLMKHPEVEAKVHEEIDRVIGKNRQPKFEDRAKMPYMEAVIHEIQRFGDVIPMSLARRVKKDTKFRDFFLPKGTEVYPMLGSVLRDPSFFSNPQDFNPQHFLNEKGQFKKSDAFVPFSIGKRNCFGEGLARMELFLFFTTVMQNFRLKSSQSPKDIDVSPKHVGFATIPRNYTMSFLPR
Sequence of CYP2D6 (P10635 whole entry): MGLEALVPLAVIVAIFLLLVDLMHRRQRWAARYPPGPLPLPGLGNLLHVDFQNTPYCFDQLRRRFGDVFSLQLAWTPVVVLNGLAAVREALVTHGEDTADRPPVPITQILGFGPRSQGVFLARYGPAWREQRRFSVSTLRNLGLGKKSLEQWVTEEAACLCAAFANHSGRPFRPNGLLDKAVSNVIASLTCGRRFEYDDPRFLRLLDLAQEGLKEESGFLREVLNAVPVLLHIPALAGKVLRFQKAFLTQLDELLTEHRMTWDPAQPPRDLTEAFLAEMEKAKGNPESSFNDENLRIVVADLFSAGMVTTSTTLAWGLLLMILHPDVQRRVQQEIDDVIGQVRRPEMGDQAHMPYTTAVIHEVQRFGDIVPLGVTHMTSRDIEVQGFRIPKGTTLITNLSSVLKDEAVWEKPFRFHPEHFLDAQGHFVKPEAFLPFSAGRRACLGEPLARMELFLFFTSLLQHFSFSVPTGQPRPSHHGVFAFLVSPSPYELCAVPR

effect on CYP2A6 (CYP2A6): no effect
mean terminal elimination half-life [1]: 40 to 50 h
effect on CYP2D6 (CYP2D6): no effect
inhibition of CYP1A2 (CYP1A2): inhibits
Structure (SMILES): CC(C)(C#N)c1cc(Cn2cncn2)cc(C(C)(C)C#N)c1 [Anastrozole, 2-[3-(2-cyano-2-propyl)-5-(1,2,4-triazol-1-ylmethyl)phenyl]-2-methylpropiononitrile]
